For one data set, the target named is T1, rV2 (Rattus norvegicus, UniProt Q00788).
T1 construct: host or cells: HEK-293 cells, transient
Briefly: Luciferase reporter gene assay, rV2. It is filed as cell-based. As to conditions: rV2, relative to dDAVP.

The next data set deals with adult male Wistar rats. Briefly: Skin blood flow and blood lactate in anesthetized rats (IV infusion). It is filed as in vivo, rat. Here is the method:
This study was performed over multiple experiments using a total of 48 adult male Wistar rats. […] Compounds were infused via an IV catheter at six sequentially increasing doses.
On the day of experimentation animals were anesthetized and instrumented. A tracheostomy was performed to allow assisted respiration and three catheters were placed. Laser Doppler probes were positioned on a shaved portion of the animal's lower abdominal skin for blood-flow measurements. Ventilation was initiated, and baseline readings for the primary parameter of skin blood flow (SBF) were recorded. Readings for the secondary parameters were also recorded: (1) blood lactate concentration, (2) mean arterial pressure (MAP), and (3) blood pH. Data collection was performed continuously for SBF and MAP using NOTOCORD-hem™ (Instem), and blood samples were taken at each compound dose and immediately analyzed using an i-STAT® meter.
After the final dose administration, animals were euthanized and a final SBF measurement was recorded to detect any signal from the flow probe after the animal's heart stopped beating to control for a signal not attributed to blood flow. Animal body temperature, pulse, and ventilation adequacy were monitored throughout the procedure.

The target of the next data set is T2, rOTR (Rattus norvegicus, UniProt P70536).
T2 sequence (P70536 1-388): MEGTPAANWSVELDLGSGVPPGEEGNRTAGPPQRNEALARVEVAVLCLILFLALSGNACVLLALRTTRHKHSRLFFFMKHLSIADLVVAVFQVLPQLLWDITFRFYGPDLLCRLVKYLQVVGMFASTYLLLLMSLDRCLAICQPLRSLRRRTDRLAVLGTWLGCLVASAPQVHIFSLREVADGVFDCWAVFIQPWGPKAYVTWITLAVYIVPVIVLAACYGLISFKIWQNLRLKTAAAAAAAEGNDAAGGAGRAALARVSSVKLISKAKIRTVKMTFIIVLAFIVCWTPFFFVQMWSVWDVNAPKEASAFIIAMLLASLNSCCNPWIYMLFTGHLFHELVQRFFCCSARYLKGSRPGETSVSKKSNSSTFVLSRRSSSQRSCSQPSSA
As to conditions: relative to carbetocin.

T1 sequence (Q00788 whole entry): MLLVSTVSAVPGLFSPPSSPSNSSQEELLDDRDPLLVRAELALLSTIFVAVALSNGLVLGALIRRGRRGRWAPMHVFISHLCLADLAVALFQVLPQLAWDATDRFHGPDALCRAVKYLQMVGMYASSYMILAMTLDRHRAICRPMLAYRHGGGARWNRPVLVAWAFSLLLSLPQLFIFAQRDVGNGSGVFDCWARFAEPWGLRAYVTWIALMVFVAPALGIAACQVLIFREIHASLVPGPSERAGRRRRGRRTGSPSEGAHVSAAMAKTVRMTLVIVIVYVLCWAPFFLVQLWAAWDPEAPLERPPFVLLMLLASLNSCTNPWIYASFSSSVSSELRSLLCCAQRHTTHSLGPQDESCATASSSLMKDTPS
Description for rOTR: (§1) Cell Maintenance. HEK-flp-in cells were maintained in Dulbecco's modified Eagle's medium (DMEM) containing 10% (v/v) heat-inactivated fetal bovine serum (FBS), 4 mM GlutaMAX™—I, and 25 μg/mL hygromycin B at 37° C. under 5% CO2 in a humidified atmosphere. […] On the day prior to the assay, cells were removed from culture flasks using trypsin EDTA, harvested in the medium used for cell culture, and seeded into 384-well (for V1a) or 96-well (for other receptors) poly-d-Iysine-treated plates at 7.5×10^4 cells in 20 μL/well for rV1a, 2.5×10^4 cells in 20 μL/well for hV1a, and 4-5×10^4 cells in 100 μL/well for all other receptors.
(§2) Functional Cell-Based Assays. To detect activity generated by binding of the test compounds to endogenous rV1a receptors or the stably expressed hV1a receptors, Fluorometric Imaging Plate Reader (FLlPR) calcium assays were performed. Briefly, real-time fluorescence of an intracellular calcium-sensitive dye was measured immediately upon addition of the test compound at various concentrations. […] Reporter gene assays were used to monitor agonist-induced activity at the human and rat V1b, V2, and OT receptors. […] Expression of the luciferase gene was determined after 5-h incubation with various concentrations of test compound. […] For V1a receptor response, area under the curve of the real-time calcium traces, expressed as relative fluorescence units, was determined. […]
Description for rV2: as §1, §2

Regarding `NC(=O)CC[C@@H]1NC(=O)[C@H](Cc2ccccc2)NC(=O)[C@H](Cc2ccc(O)cc2)NC(=O)[C@@H](N)CSSC[C@@H](C(=O)N2CCC[C@H]2C(=O)N[C@@H](CCCN=C(N)N)C(=O)NCC(N)=O)NC(=O)[C@H](CC(N)=O)NC1=O` [AVP, arginine vasopressin], the entries for the “% MPE Mean” value on rV2 and at rOTR were 98 % MPE and 82 % MPE, respectively. For the same compound, in the data set on adult male Wistar rats (anesthetized rats, IV infusion), the “ED50, skin blood flow” value was 12.6 pmol/kg/min. The “mean blood lactate concentration” value with adult male Wistar rats (rats, IV 3 pmoL/kg/min) was 1.34 mM; in the data set on adult male Wistar rats (rats, IV 600 pmoL/kg/min), 4.27 mM. The “blood lactate at highest doses tested” value in the data set on adult male Wistar rats (rats, IV, compared with vehicle) is on record as “significantly elevated”. Also, in the data set with adult male Wistar rats (rats, intravenous administration), the “decrease of skin blood flow from baseline (approximate maximal)” value is listed as “about 90%”.

(Values after patent publication US20260137790A1, “MIXED VASOPRESSIN RECEPTOR AGONIST-ANTAGONIST FOR MODULATING MEAN ARTERIAL PRESSURE” (FERRING B.V., priority 2022, published 2026).)
